For one data set, the system named is Abutilon theophrasti. As to the kind of experiment: Post-emergence herbicidal activity test (stem and leaf spray, pot culture). In kind it is in vivo. The note with it: 3 weeks after spraying. In short, it runs like this: (§1)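 Greenhouse pot-grown weeds (loam, pH 7) sprayed post-emergence at 2- to 3-leaf stage with acetone/Tween 80 formulation plus 1.5 liters/ha methyl oleate, at 10, 5 and 2.5 g/mu. Fresh-weight growth control rated 3 weeks later on 0–5 grade scale.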

Another data set concerns Echinochloa crusgalli. The data set is described as above. The note with it: 3 weeks after spraying. The data set is classed as in vivo. The procedure, abridged:
as §1

In the next data set the test system is Setaria viridis. The data set is described as above. The data set is classed as in vivo. The note with it: 3 weeks after spraying. The procedure, abridged: as §1
In a further data set the test system is Amaranthus retroflexus. Described as above. In kind it is in vivo. The conditions noted are these: 3 weeks after spraying. In short, it runs like this: as §1
In a further data set the test system is Portulaca oleracea. The data set is described as above. In kind it is in vivo. The conditions noted are these: 3 weeks after spraying. The procedure, abridged:
as §1

For a further data set, the system named is Trifoliumre pensL. The description is as above. In kind it is in vivo. The note with it: 3 weeks after spraying. In short, it runs like this:
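Pot-grown weeds in loam (pH 7), greenhouse at 20–30 °C, sprayed once post-emergence at the 2–3-leaf stage. Compound in acetone with Tween 80 plus methyl oleate oil (1.5 L/ha), applied at 10, 5 and 2.5 g/mu by spray tower. Effect scored 3 weeks after spraying, averaged over three repeats.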

The results in this text go back to US20240300932A1, “N-PHENYLIMINE DERIVATIVE AND PREPARATION METHOD AND USE THEREOF” (Guizhou University, priority 2023, published 2024).

Molecules are shown by their SMILES.

A word on the melting point: it is the temperature, or range, at which the solid turns liquid. On to `O=C(COc1cc(N2C(=O)C3=C(CCCC3)C2=O)c(F)cc1Cl)c1cc(F)cc(F)c1` [Compound C5, 2-(4-chloro-2-fluoro-5-(2-oxo-2-(3,5-difluorophenyl)ethoxy)phenyl)-4,5,6,7-tetrahydro-1H-isoindole-1,3(2H)-dione], for which the melting point lay within 135 to 137 °C. Also, the “Post-emergence herbicidal activity, A. theophrasti (grade)” value in the data set on Abutilon theophrasti (dosage 2.5 g/mu) was 5 (Grade 5: the growth control rate is greater than or equal to 85%). Besides, the “Post-emergence herbicidal activity, A. theophrasti (grade)” value with Abutilon theophrasti (dosage 5 g/mu) is 5 (Grade 5: the growth control rate is greater than or equal to 85%). Moreover, the “Post-emergence herbicidal activity, A. theophrasti (grade)” value in the data set with Abutilon theophrasti (dosage 10 g/mu) is 5 (Grade 5: the growth control rate is greater than or equal to 85%). Also, the “Post-emergence herbicidal activity, E. crusgalli (grade)” value in the data set on Echinochloa crusgalli (dosage 2.5 g/mu) was 1 (Grade 1: the growth control rate is greater than or equal to 5% and less than 20%). Further, the “Post-emergence herbicidal activity, E. crusgalli (grade)” value in the data set on Echinochloa crusgalli (dosage 5 g/mu) is 2 (Grade 2: the growth control rate is greater than or equal to 20% and less than 40%). In addition, in the data set with Echinochloa crusgalli (dosage 10 g/mu), the “Post-emergence herbicidal activity, E. crusgalli (grade)” value was 3 (Grade 3: the growth control rate is greater than or equal to 40% and less than 60%). Besides, the “Post-emergence herbicidal activity, S. viridis (grade)” value with Setaria viridis (dosage 2.5 g/mu) is 2 (Grade 2: the growth control rate is greater than or equal to 20% and less than 40%). In addition, the “Post-emergence herbicidal activity, S. viridis (grade)” value with Setaria viridis (dosage 5 g/mu) is 3 (Grade 3: the growth control rate is greater than or equal to 40% and less than 60%). In the data set with Setaria viridis (dosage 10 g/mu), the “Post-emergence herbicidal activity, S. viridis (grade)” value is 4 (Grade 4: the growth control rate is greater than or equal to 60% and less than 85%). Besides, in the data set on Amaranthus retroflexus (dosage 2.5 g/mu), the “Post-emergence herbicidal activity, A. retroflexus (grade)” value is reported as 5 (Grade 5: the growth control rate is greater than or equal to 85%). Further, the “Post-emergence herbicidal activity, A. retroflexus (grade)” value with Amaranthus retroflexus (dosage 5 g/mu) is reported as 5 (Grade 5: the growth control rate is greater than or equal to 85%). Besides, the “Post-emergence herbicidal activity, A. retroflexus (grade)” value in the data set on Amaranthus retroflexus (dosage 10 g/mu) was 5 (Grade 5: the growth control rate is greater than or equal to 85%). Further, the “Post-emergence herbicidal activity, P. oleracea (grade)” value in the data set with Portulaca oleracea (dosage 2.5 g/mu) is 5 (Grade 5: the growth control rate is greater than or equal to 85%). For the same molecule, the “Post-emergence herbicidal activity, P. oleracea (grade)” value in the data set with Portulaca oleracea (dosage 5 g/mu) is 5 (Grade 5: the growth control rate is greater than or equal to 85%). Moreover, in the data set with Portulaca oleracea (dosage 10 g/mu), the “Post-emergence herbicidal activity, P. oleracea (grade)” value is 5 (Grade 5: the growth control rate is greater than or equal to 85%). In addition, the “Post-emergence herbicidal activity, Trifoliumre pensL. (grade)” value in the data set on Trifoliumre pensL. (dosage 2.5 g/mu) is 5 (Grade 5: the growth control rate is greater than or equal to 85%). For the same molecule, in the data set on Trifoliumre pensL. (dosage 5 g/mu), the “Post-emergence herbicidal activity, Trifoliumre pensL. (grade)” value is 5 (Grade 5: the growth control rate is greater than or equal to 85%). For the same molecule, in the data set on Trifoliumre pensL. (dosage 10 g/mu), the “Post-emergence herbicidal activity, Trifoliumre pensL. (grade)” value was 5 (Grade 5: the growth control rate is greater than or equal to 85%).

In the case of `O=C(COc1cc(N2C(=O)C3=C(CCCC3)C2=O)c(F)cc1Cl)c1ccc([N+](=O)[O-])cc1` [Compound C9, 2-(4-chloro-2-fluoro-5-(2-oxo-2-(4-nitrophenyl)ethoxy)phenyl)-4,5,6,7-tetrahydro-1H-isoindole-1,3(2H)-dione], the melting point was in the range of 148 to 150 °C. For the same molecule, the “Post-emergence herbicidal activity, A. theophrasti (grade)” value with Abutilon theophrasti (dosage 2.5 g/mu) was 5 (Grade 5: the growth control rate is greater than or equal to 85%). Besides, in the data set on Abutilon theophrasti (dosage 5 g/mu), the “Post-emergence herbicidal activity, A. theophrasti (grade)” value was 5 (Grade 5: the growth control rate is greater than or equal to 85%). Also, in the data set on Abutilon theophrasti (dosage 10 g/mu), the “Post-emergence herbicidal activity, A. theophrasti (grade)” value is 5 (Grade 5: the growth control rate is greater than or equal to 85%). Also, in the data set on Echinochloa crusgalli (dosage 2.5 g/mu), the “Post-emergence herbicidal activity, E. crusgalli (grade)” value was 1 (Grade 1: the growth control rate is greater than or equal to 5% and less than 20%). In addition, the “Post-emergence herbicidal activity, E. crusgalli (grade)” value in the data set with Echinochloa crusgalli (dosage 5 g/mu) was 2 (Grade 2: the growth control rate is greater than or equal to 20% and less than 40%). Also, the “Post-emergence herbicidal activity, E. crusgalli (grade)” value in the data set on Echinochloa crusgalli (dosage 10 g/mu) is 3 (Grade 3: the growth control rate is greater than or equal to 40% and less than 60%). Besides, the “Post-emergence herbicidal activity, S. viridis (grade)” value in the data set on Setaria viridis (dosage 2.5 g/mu) is 2 (Grade 2: the growth control rate is greater than or equal to 20% and less than 40%). For the same molecule, the “Post-emergence herbicidal activity, S. viridis (grade)” value with Setaria viridis (dosage 5 g/mu) is 3 (Grade 3: the growth control rate is greater than or equal to 40% and less than 60%). For the same molecule, the “Post-emergence herbicidal activity, S. viridis (grade)” value with Setaria viridis (dosage 10 g/mu) is 4 (Grade 4: the growth control rate is greater than or equal to 60% and less than 85%). The “Post-emergence herbicidal activity, A. retroflexus (grade)” value in the data set on Amaranthus retroflexus (dosage 2.5 g/mu) is 5 (Grade 5: the growth control rate is greater than or equal to 85%). The “Post-emergence herbicidal activity, A. retroflexus (grade)” value in the data set with Amaranthus retroflexus (dosage 5 g/mu) is given as 5 (Grade 5: the growth control rate is greater than or equal to 85%). In addition, in the data set with Amaranthus retroflexus (dosage 10 g/mu), the “Post-emergence herbicidal activity, A. retroflexus (grade)” value is 5 (Grade 5: the growth control rate is greater than or equal to 85%). In the data set on Portulaca oleracea (dosage 2.5 g/mu), the “Post-emergence herbicidal activity, P. oleracea (grade)” value is recorded as 5 (Grade 5: the growth control rate is greater than or equal to 85%). In addition, the “Post-emergence herbicidal activity, P. oleracea (grade)” value in the data set with Portulaca oleracea (dosage 5 g/mu) is given as 5 (Grade 5: the growth control rate is greater than or equal to 85%). Besides, the “Post-emergence herbicidal activity, P. oleracea (grade)” value in the data set on Portulaca oleracea (dosage 10 g/mu) is on record as 5 (Grade 5: the growth control rate is greater than or equal to 85%). In the data set on Trifoliumre pensL. (dosage 2.5 g/mu), the “Post-emergence herbicidal activity, Trifoliumre pensL. (grade)” value is 5 (Grade 5: the growth control rate is greater than or equal to 85%). In addition, in the data set with Trifoliumre pensL. (dosage 5 g/mu), the “Post-emergence herbicidal activity, Trifoliumre pensL. (grade)” value is listed as 5 (Grade 5: the growth control rate is greater than or equal to 85%). Moreover, the “Post-emergence herbicidal activity, Trifoliumre pensL. (grade)” value with Trifoliumre pensL. (dosage 10 g/mu) is 5 (Grade 5: the growth control rate is greater than or equal to 85%).

`O=C(Nc1cc(N2C(=O)C3=C(CCCC3)C2=O)c(F)cc1Cl)C1CC1` [Compound D8, N-(2-chloro-5-(1,3-dioxo-1,3,4,5,6,7-hexahydro-2H-isoindole-2-yl)-4-fluorophenyl)cyclopropanecarboxamide] yielded a melting point of 208 to 210 °C. In addition, in the data set on Abutilon theophrasti (dosage 10 g/mu), the “Post-emergence herbicidal activity, A. theophrasti (grade)” value is reported as 5 (Grade 5: the growth control rate is greater than or equal to 85%). Also, the “Post-emergence herbicidal activity, E. crusgalli (grade)” value in the data set with Echinochloa crusgalli (dosage 10 g/mu) is 3 (Grade 3: the growth control rate is greater than or equal to 40% and less than 60%). For the same molecule, the “Post-emergence herbicidal activity, S. viridis (grade)” value with Setaria viridis (dosage 10 g/mu) is 3 (Grade 3: the growth control rate is greater than or equal to 40% and less than 60%). In the data set on Amaranthus retroflexus (dosage 10 g/mu), the “Post-emergence herbicidal activity, A. retroflexus (grade)” value is given as 5 (Grade 5: the growth control rate is greater than or equal to 85%). Also, the “Post-emergence herbicidal activity, P. oleracea (grade)” value with Portulaca oleracea (dosage 10 g/mu) is listed as 5 (Grade 5: the growth control rate is greater than or equal to 85%). Besides, the “Post-emergence herbicidal activity, Trifoliumre pensL. (grade)” value in the data set on Trifoliumre pensL. (dosage 10 g/mu) is reported as 5 (Grade 5: the growth control rate is greater than or equal to 85%).

`O=C(Nc1cc(N2C(=O)C3=C(CCCC3)C2=O)c(F)cc1Cl)C1CCC1` [Compound D9, N-(2-chloro-5-(1,3-dioxo-1,3,4,5,6,7-hexahydro-2H-isoindole-2-yl)-4-fluorophenyl)cyclobutanecarboxamide] returned a melting point of 145 to 147 °C. Besides, the “Post-emergence herbicidal activity, A. theophrasti (grade)” value in the data set on Abutilon theophrasti (dosage 10 g/mu) was 5 (Grade 5: the growth control rate is greater than or equal to 85%). In the data set on Echinochloa crusgalli (dosage 10 g/mu), the “Post-emergence herbicidal activity, E. crusgalli (grade)” value is 3 (Grade 3: the growth control rate is greater than or equal to 40% and less than 60%). For the same molecule, the “Post-emergence herbicidal activity, S. viridis (grade)” value in the data set on Setaria viridis (dosage 10 g/mu) is 3 (Grade 3: the growth control rate is greater than or equal to 40% and less than 60%). In addition, the “Post-emergence herbicidal activity, A. retroflexus (grade)” value in the data set on Amaranthus retroflexus (dosage 10 g/mu) is listed as 5 (Grade 5: the growth control rate is greater than or equal to 85%). Besides, the “Post-emergence herbicidal activity, P. oleracea (grade)” value in the data set on Portulaca oleracea (dosage 10 g/mu) was 5 (Grade 5: the growth control rate is greater than or equal to 85%). Further, the “Post-emergence herbicidal activity, Trifoliumre pensL. (grade)” value in the data set with Trifoliumre pensL. (dosage 10 g/mu) is on record as 5 (Grade 5: the growth control rate is greater than or equal to 85%).
